# Results from PubChem BioAssay (NCI).
#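 Exposure lasted 48 hours, with cells grown in 96-well plates and compounds tested at five concentrations. GI50 = concentration required for 50% inhibition of growth. Definition used: TGI = concentration required for complete inhibition of growth.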
# Legend:
# Experiment in all cases: DTP human tumour cell line panel, 48 h
# 786-0 renal = tested on: 786-0 renal
# A498 renal = tested on: A498 renal
# A549 NSCLC = tested on: A549 NSCLC
# ACHN renal = tested on: ACHN renal
# BT-549 breast = tested on: BT-549 breast
# CAKI-1 renal = tested on: CAKI-1 renal
# CCRF-CEM leukemia = tested on: CCRF-CEM leukemia
# COLO 205 colon = tested on: COLO 205 colon
# DU-145 prostate = tested on: DU-145 prostate
# EKVX NSCLC = tested on: EKVX NSCLC
# HCC-2998 colon = tested on: HCC-2998 colon
# HCT-116 colon = tested on: HCT-116 colon
# HCT-15 colon = tested on: HCT-15 colon
# HL-60(TB) leukemia = tested on: HL-60(TB) leukemia
# HOP-62 NSCLC = tested on: HOP-62 NSCLC
# HOP-92 NSCLC = tested on: HOP-92 NSCLC
# HS 578T breast = tested on: HS 578T breast
# HT29 colon = tested on: HT29 colon
# IGROV1 ovarian = tested on: IGROV1 ovarian
# K-562 leukemia = tested on: K-562 leukemia
# KM12 colon = tested on: KM12 colon
# LOX IMVI melanoma = tested on: LOX IMVI melanoma
# MALME-3M melanoma = tested on: MALME-3M melanoma
# MCF7 breast = tested on: MCF7 breast
# MDA-MB-231 breast = tested on: MDA-MB-231 breast
# MDA-MB-435 = tested on: MDA-MB-435
# MOLT-4 leukemia = tested on: MOLT-4 leukemia
# NCI-H226 lung = tested on: NCI-H226 lung
# NCI-H23 lung = tested on: NCI-H23 lung
# NCI-H460 lung = tested on: NCI-H460 lung
# NCI-H522 lung = tested on: NCI-H522 lung
# NCI/ADR-RES ovarian = tested on: NCI/ADR-RES ovarian
# OVCAR-3 ovarian = tested on: OVCAR-3 ovarian
# OVCAR-4 ovarian = tested on: OVCAR-4 ovarian
# OVCAR-5 ovarian = tested on: OVCAR-5 ovarian
# OVCAR-8 ovarian = tested on: OVCAR-8 ovarian
# PC-3 prostate = tested on: PC-3 prostate
# RPMI-8226 leukemia = tested on: RPMI-8226 leukemia
# RXF 393 renal = tested on: RXF 393 renal
# SF-268 CNS = tested on: SF-268 CNS
# SF-295 CNS = tested on: SF-295 CNS
# SF-539 CNS = tested on: SF-539 CNS
# SK-MEL-2 melanoma = tested on: SK-MEL-2 melanoma
# SK-MEL-28 melanoma = tested on: SK-MEL-28 melanoma
# SK-MEL-5 melanoma = tested on: SK-MEL-5 melanoma
# SK-OV-3 ovarian = tested on: SK-OV-3 ovarian
# SN12C renal = tested on: SN12C renal
# SNB-19 CNS = tested on: SNB-19 CNS
# SNB-75 CNS = tested on: SNB-75 CNS
# SR leukemia = tested on: SR leukemia
# SW-620 colon = tested on: SW-620 colon
# TK-10 renal = tested on: TK-10 renal
# U251 CNS = tested on: U251 CNS
# UACC-257 melanoma = tested on: UACC-257 melanoma
# UACC-62 melanoma = tested on: UACC-62 melanoma
# UO-31 renal = tested on: UO-31 renal
compound,measurement,setting,value
CN1C(=O)N(C)C2C1NN=c1s/c(=C\c3ccccc3F)c(=O)n12 (stereo unspecified),GI50,786-0 renal,741 nM
same,TGI,786-0 renal,> 100000 nM
same,GI50,A498 renal,175 nM
same,TGI,A498 renal,929 nM
same,GI50,A549 NSCLC,439 nM
same,TGI,A549 NSCLC,> 100000 nM
same,GI50,ACHN renal,684 nM
same,TGI,ACHN renal,> 100000 nM
same,GI50,BT-549 breast,1390 nM
same,TGI,BT-549 breast,> 100000 nM
same,GI50,CAKI-1 renal,140 nM
same,TGI,CAKI-1 renal,> 100000 nM
same,GI50,CCRF-CEM leukemia,335 nM
same,TGI,CCRF-CEM leukemia,> 100000 nM
same,GI50,COLO 205 colon,328 nM
same,TGI,COLO 205 colon,1430 nM
same,GI50,DU-145 prostate,325 nM
same,TGI,DU-145 prostate,23900 nM
same,GI50,EKVX NSCLC,398 nM
same,TGI,EKVX NSCLC,> 100000 nM
same,GI50,HCC-2998 colon,422 nM
same,TGI,HCC-2998 colon,> 100000 nM
same,GI50,HCT-116 colon,354 nM
same,TGI,HCT-116 colon,> 56600 nM
same,GI50,HCT-15 colon,145 nM
same,TGI,HCT-15 colon,> 100000 nM
same,GI50,HL-60(TB) leukemia,224 nM
same,TGI,HL-60(TB) leukemia,633 nM
same,GI50,HOP-62 NSCLC,480 nM
same,TGI,HOP-62 NSCLC,> 100000 nM
same,GI50,HOP-92 NSCLC,8510 nM
same,TGI,HOP-92 NSCLC,> 100000 nM
same,GI50,HS 578T breast,287 nM
same,TGI,HS 578T breast,> 100000 nM
same,GI50,HT29 colon,312 nM
same,TGI,HT29 colon,> 36700 nM
same,GI50,IGROV1 ovarian,633 nM
same,TGI,IGROV1 ovarian,> 100000 nM
same,GI50,K-562 leukemia,117 nM
same,TGI,K-562 leukemia,> 100000 nM
same,GI50,KM12 colon,198 nM
same,TGI,KM12 colon,> 60200 nM
same,GI50,LOX IMVI melanoma,565 nM
same,TGI,LOX IMVI melanoma,> 100000 nM
same,GI50,MALME-3M melanoma,325 nM
same,TGI,MALME-3M melanoma,> 100000 nM
same,GI50,MCF7 breast,69 nM
same,TGI,MCF7 breast,> 100000 nM
same,GI50,MDA-MB-231 breast,541 nM
same,TGI,MDA-MB-231 breast,> 41600 nM
same,GI50,MDA-MB-435,38.7 nM
same,TGI,MDA-MB-435,184 nM
same,GI50,MOLT-4 leukemia,520 nM
same,TGI,MOLT-4 leukemia,> 100000 nM
same,GI50,NCI-H226 lung,1230 nM
same,TGI,NCI-H226 lung,> 100000 nM
same,GI50,NCI-H23 lung,534 nM
same,TGI,NCI-H23 lung,> 100000 nM
same,GI50,NCI-H460 lung,351 nM
same,TGI,NCI-H460 lung,> 100000 nM
same,GI50,NCI-H522 lung,229 nM
same,GI50,NCI/ADR-RES ovarian,229 nM
same,TGI,NCI/ADR-RES ovarian,> 100000 nM
same,GI50,OVCAR-3 ovarian,170 nM
same,TGI,OVCAR-3 ovarian,680 nM
same,GI50,OVCAR-4 ovarian,1410 nM
same,TGI,OVCAR-4 ovarian,> 100000 nM
same,GI50,OVCAR-5 ovarian,496 nM
same,TGI,OVCAR-5 ovarian,> 100000 nM
same,GI50,OVCAR-8 ovarian,516 nM
same,TGI,OVCAR-8 ovarian,> 100000 nM
same,GI50,PC-3 prostate,296 nM
same,TGI,PC-3 prostate,> 100000 nM
same,GI50,RPMI-8226 leukemia,364 nM
same,TGI,RPMI-8226 leukemia,> 66800 nM
same,GI50,RXF 393 renal,159 nM
same,TGI,RXF 393 renal,491 nM
same,GI50,SF-268 CNS,1220 nM
same,TGI,SF-268 CNS,> 100000 nM
same,GI50,SF-295 CNS,186 nM
same,TGI,SF-295 CNS,> 100000 nM
same,GI50,SF-539 CNS,217 nM
same,TGI,SF-539 CNS,639 nM
same,GI50,SK-MEL-2 melanoma,629 nM
same,TGI,SK-MEL-2 melanoma,> 100000 nM
same,GI50,SK-MEL-28 melanoma,5750 nM
same,TGI,SK-MEL-28 melanoma,> 100000 nM
same,GI50,SK-MEL-5 melanoma,188 nM
same,TGI,SK-MEL-5 melanoma,4110 nM
same,GI50,SK-OV-3 ovarian,446 nM
same,TGI,SK-OV-3 ovarian,> 100000 nM
same,GI50,SN12C renal,671 nM
same,TGI,SN12C renal,> 100000 nM
same,GI50,SNB-19 CNS,448 nM
same,TGI,SNB-19 CNS,> 100000 nM
same,GI50,SNB-75 CNS,80.7 nM
same,TGI,SNB-75 CNS,547 nM
same,GI50,SR leukemia,93 nM
same,TGI,SR leukemia,> 100000 nM
same,GI50,SW-620 colon,296 nM
same,TGI,SW-620 colon,> 100000 nM
same,GI50,TK-10 renal,> 20800 nM
same,TGI,TK-10 renal,> 100000 nM
same,GI50,U251 CNS,356 nM
same,TGI,U251 CNS,> 100000 nM
same,GI50,UACC-257 melanoma,> 100000 nM
same,TGI,UACC-257 melanoma,> 100000 nM
same,GI50,UACC-62 melanoma,371 nM
same,TGI,UACC-62 melanoma,> 100000 nM
same,GI50,UO-31 renal,657 nM
same,TGI,UO-31 renal,> 100000 nM
